# Patent US20100227884A1 (priority 2007, published 2010)
# Tests used:
# Format in all cases: in vivo
# Botrytis cinerea [1] = assay: Test Example 1: preventive effect on Botrytis disease of cucumber; conditions: cucumber (Sagami Hanjiro), flowable formulation, 200 ppm foliar spray before inoculation, 12° C. for 5 days under high humidity
# Procedure: (§1) The area of lesions on the test plants at testing was visually observed, and the control effect was evaluated by comparing the area of lesions on test plants treated with the invented compound with the area of lesions on untreated plants.
# Test for showing preventive effect on Botrytis disease of cucumber (Botrytis cinerea):
# Sand soil was packed in a plastic pot, and seeds of cucumber (variety: Sagami Hanjiro) were sowed therein and grown for 12 days in a greenhouse. Each of the invented compounds (1)-(5) and the comparative compound (A) was formulated into flowable formulation in accordance with Formulation Example 6, and it was diluted with water to a given concentration (200 ppm) and was sprayed onto the foliage of the cucumber so that a sufficient amount of the compound would be applied to the surface of leaves of the cucumber. After spraying, the plant was air-dried and PDA medium containing spores of Botrytis cinerea was placed on the surface of leaves of the cucumber. After the inoculation, the plant was left at 12° C. for 5 days under high humidity, and then the area of lesions was examined. As a result, the lesion area on the plant treated with the invented compounds (1)-(5) was less than 10% of the lesion area on the untreated plant. The lesion area on the plant treated with the comparative compound (A) was 98% of the untreated plant.
# Botrytis cinerea [2] = assay: Test Example 2: curative effect on Botrytis disease of cucumber; conditions: cucumber (Sagami Hanjiro), wettable powder, 200 ppm foliar spray after inoculation, 12° C. for 2 days under high humidity
# Procedure: as §1
# Test for showing curative effect on Botrytis disease of cucumber (Botrytis cinerea):
# Sand soil was packed in a plastic pot, and seeds of cucumber (variety: Sagami Hanjiro) were sowed therein and grown for 12 days in a greenhouse. A PDA medium containing spores of Botrytis cinerea was placed on the surface of leaves of the cucumber to inoculate the surface of leaves of the cucumber. Then, the wettable powder of each of the invented compounds (1) and (2) and the comparative compound (A) was diluted with water to a concentration of 200 ppm and was sprayed onto the foliage of the cucumber so that a sufficient amount of the compound would be applied to the surface of leaves of the cucumber. After spraying, the plant was air-dried and left at 12° C. for 2 days under high humidity, and then the area of lesions was examined.
# As a result, the lesion area on the plant treated with the invented compounds (1) and (2) was respectively less than 11% and less than 15% of the lesion area on the plant of untreated plant. The lesion area on the plant treated with the comparative compound (A) was 98% of the untreated plant.
# Magnaporthe grisea = conditions: rice (Nihonbare), flowable formulation, 500 ppm foliar spray before inoculation, 5 days after inoculation
Structure (SMILES),lesion area on the treated plant as % of the lesion area on the untreated plant (Botrytis cinerea [1]) [%],lesion area on the treated plant as % of the lesion area on the untreated plant (Botrytis cinerea [2]),lesion area on the treated plant as % of the lesion area on the untreated plant (Magnaporthe grisea) [%]
"CC(C)CCOc1cccc(CNC(=O)c2ccc3ncccc3c2)c1 [comparative compound (A), N-(3-(3-methylbutoxy)phenyl)methyl-quinoline-6-carboxamide]",98,98%,98
"COc1cccc(CNC(=O)c2ccc3ncccc3c2)c1F [invented compound (1), N-(2-fluoro-3-methoxyphenyl)methyl-quinoline-6-carboxamide]",,less than 11%,
"CCOc1cccc(CNC(=O)c2ccc3ncccc3c2)c1F [invented compound (2), N-(3-ethoxy-2-fluorophenyl)methyl-quinoline-6-carboxamide]",,less than 15%,
